Reference: ChEMBL document CHEMBL1132028, “Glycolipids from sponges. VII. Simplexides, novel immunosuppressive glycolipids from the Caribbean sponge Plakortis simplex” (1999)

How the values were obtained:
[1] = tested on: T-cell; experiment: Inhibitory activity against murine immune-system T-cells stimulated with concanavalin-A at 100 ng/ml; format: functional, Mus musculus
[2] = tested on: T-cell; experiment: Inhibitory activity against murine immune-system T-cells stimulated with concanavalin-A at 10 ng/ml; format: functional, Mus musculus
[3] = tested on: Plakortis simplex; experiment: In vitro immunosuppressors activity against P. simplex; Potent; format: functional, organism-based

**Q.** How did the Proliferation [1] turn out when `CCCCCCCCCCCCCCCCCC(CCCCCCCCCCCCCCCCC)O[C@@H]1O[C@@H](CO)[C@H](O[C@H]2O[C@@H](CO)[C@@H](O)[C@H](O)[C@@H]2O)[C@H](O)[C@@H]1O` was run?
**A.** Its Proliferation is 79%.

**Q.** And the Proliferation [2]?
**A.** The Proliferation was 43%.

**Q.** With `CCCCCCCCCCCCCCCCC(CCCCCCCCCCCCCCCC)O[C@@H]1O[C@@H](CO)[C@H](O[C@H]2O[C@@H](CO)[C@@H](O)[C@H](O)[C@@H]2O)[C@H](O)[C@@H]1O` as the compound, how does the Proliferation [1] read?
**A.** The Proliferation was 79%.

**Q.** And the Proliferation [2]?
**A.** The Proliferation was 43%.

**Q.** Which results are given for `CCCCCCCCCCCCCCCCCCC(CCCCCCCCCCCCCCC(C)C)O[C@@H]1O[C@@H](CO)[C@H](OC2O[C@@H](CO)[C@@H](O)[C@H](O)[C@@H]2O)[C@H](O)[C@@H]1O` (stereo partly specified)?
**A.** Proliferation [1]: 79%; Proliferation [2]: 43%

**Q.** With `CCCCCCCCCCCCCCCCCCC(CCCCCCCCCCCCCCCCCC)O[C@@H]1O[C@@H](CO)[C@H](O[C@H]2O[C@@H](CO)[C@@H](O)[C@H](O)[C@@H]2O)[C@H](O)[C@@H]1O` as the compound, how does the Proliferation [1] read?
**A.** The Proliferation was 79%.

**Q.** And the Proliferation [2]?
**A.** Its Proliferation is 43%.

**Q.** `CCCCCCCCCCCC1CC1CCCCC/C=C/CC[C@@H](O)[C@H](CO[C@@H]1O[C@@H](CO)[C@H](O)[C@H](O)[C@@H]1OCC=C(C)C)NC(=O)[C@H](O)CC/C=C\CCCCC1CC1CCCCCCCCCC` (stereo partly specified) was tested. Which Activity [3] did it give?
**A.** Its Activity is “Potent”.

**Q.** How did the Proliferation [1] turn out when `CCCCCCCCCCCCCCCCCC(CCCCCCCCCCCCCCC(C)CC)O[C@@H]1O[C@@H](CO)[C@H](O[C@H]2O[C@@H](CO)[C@@H](O)[C@H](O)[C@@H]2O)[C@H](O)[C@@H]1O` (stereo partly specified) was run?
**A.** The Proliferation was 79%.

**Q.** What about the Proliferation [2] of the same compound?
**A.** Its Proliferation is 43%.

**Q.** `CCCCCCCCCCCCCCCCCCC(CCCCCCCCCCCCCCC(C)CC)O[C@@H]1O[C@@H](CO)[C@H](O[C@H]2O[C@@H](CO)[C@@H](O)[C@H](O)[C@@H]2O)[C@H](O)[C@@H]1O` (stereo partly specified) was tested. Which Proliferation [1] did it give?
**A.** The Proliferation was 79%.

**Q.** And the Proliferation [2]?
**A.** The Proliferation was 43%.

**Q.** Which results are given for `CCC(C)CCCCCCCCCCCCCCC(CCCCCCCCCCCCCCC(C)C)O[C@@H]1O[C@@H](CO)[C@H](O[C@H]2O[C@@H](CO)[C@@H](O)[C@H](O)[C@@H]2O)[C@H](O)[C@@H]1O` (stereo partly specified)?
**A.** Proliferation [1]: 79%; Proliferation [2]: 43%

**Q.** `CCCCCCCCCCCCCCCCCCC(CCCCCCCCCCCCCCCC)O[C@@H]1O[C@@H](CO)[C@H](O[C@H]2O[C@@H](CO)[C@@H](O)[C@H](O)[C@@H]2O)[C@H](O)[C@@H]1O` (stereo partly specified) was tested. Which Proliferation [1] did it give?
**A.** Its Proliferation is 79%.

**Q.** What about the Proliferation [2] of the same compound?
**A.** Its Proliferation is 43%.

**Q.** `CCCCCCCCCCCCCCCCCC(CCCCCCCCCCCCCCCC)O[C@@H]1O[C@@H](CO)[C@H](O[C@H]2O[C@@H](CO)[C@@H](O)[C@H](O)[C@@H]2O)[C@H](O)[C@@H]1O` (stereo partly specified) was tested. Which Proliferation [1] did it give?
**A.** The Proliferation was 79%.

**Q.** What about the Proliferation [2] of the same compound?
**A.** Its Proliferation is 43%.

**Q.** Which results are given for `CCCCCCCCCCCCCCCCC(CCCCCCCCCCCCCCC(C)CC)O[C@@H]1O[C@@H](CO)[C@H](O[C@H]2O[C@@H](CO)[C@@H](O)[C@H](O)[C@@H]2O)[C@H](O)[C@@H]1O` (stereo partly specified)?
**A.** Proliferation [1]: 79%; Proliferation [2]: 43%

**Q.** With `CCCCCCCCCCCCCCCCCCC(CCCCCCCCCCCCCCCCC)O[C@@H]1O[C@@H](CO)[C@H](OC2O[C@@H](CO)[C@@H](O)[C@H](O)[C@@H]2O)[C@H](O)[C@@H]1O` (stereo partly specified) as the compound, how does the Proliferation [1] read?
**A.** Its Proliferation is 79%.

**Q.** And the Proliferation [2]?
**A.** The Proliferation was 43%.

**Q.** Which Proliferation [1] does the source give for `CCCCCCCCCCCCCCCCC(CCCCCCCCCCCCCCC(C)C)O[C@@H]1O[C@@H](CO)[C@H](O[C@H]2O[C@@H](CO)[C@@H](O)[C@H](O)[C@@H]2O)[C@H](O)[C@@H]1O` (stereo partly specified) here?
**A.** Its Proliferation is 79%.

**Q.** And the Proliferation [2]?
**A.** The Proliferation was 43%.

**Q.** Which Proliferation [1] does the source give for `CCC(C)CCCCCCCCCCCCCCC(CCCCCCCCCCCCCCC(C)CC)O[C@@H]1O[C@@H](CO)[C@H](OC2O[C@@H](CO)[C@@H](O)[C@H](O)[C@@H]2O)[C@H](O)[C@@H]1O` (stereo partly specified) here?
**A.** The Proliferation was 79%.

**Q.** What about the Proliferation [2] of the same compound?
**A.** Its Proliferation is 43%.

**Q.** With `CCCCCCCCCCCCCCCCCC(CCCCCCCCCCCCCCC(C)C)O[C@@H]1O[C@@H](CO)[C@H](O[C@H]2O[C@@H](CO)[C@@H](O)[C@H](O)[C@@H]2O)[C@H](O)[C@@H]1O` (stereo partly specified) as the compound, how does the Proliferation [1] read?
**A.** The Proliferation was 79%.

**Q.** What about the Proliferation [2] of the same compound?
**A.** Its Proliferation is 43%.

**Q.** For `CC(C)CCCCCCCCCCCCCCC(CCCCCCCCCCCCCCC(C)C)O[C@@H]1O[C@@H](CO)[C@H](O[C@H]2O[C@@H](CO)[C@@H](O)[C@H](O)[C@@H]2O)[C@H](O)[C@@H]1O`, which Proliferation [1] is on record?
**A.** Its Proliferation is 79%.

**Q.** And the Proliferation [2]?
**A.** The Proliferation was 43%.
